Laboratory results published in PubChem BioAssay (NCI).
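Dose response: 5 concentrations. Exposure: 48 h. Format: 96-well plates. Endpoint: linear interpolation; highest concentration if not reached. Abbreviation: GI50, concentration required for 50% inhibition of growth. TGI denotes the concentration required for complete inhibition of growth.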

Columns and labels:
Test in all cases: DTP human tumour cell line panel, 48 h
EKVX NSCLC = system: EKVX NSCLC
MDA-MB-435 = system: MDA-MB-435
OVCAR-3 ovarian = system: OVCAR-3 ovarian
RXF 393 renal = system: RXF 393 renal
COLO 205 colon = system: COLO 205 colon
SW-620 colon = system: SW-620 colon
NCI-H460 lung = system: NCI-H460 lung
OVCAR-8 ovarian = system: OVCAR-8 ovarian
IGROV1 ovarian = system: IGROV1 ovarian
SN12C renal = system: SN12C renal
LOX IMVI melanoma = system: LOX IMVI melanoma
PC-3 prostate = system: PC-3 prostate
TK-10 renal = system: TK-10 renal
HCT-15 colon = system: HCT-15 colon
786-0 renal = system: 786-0 renal
SF-295 CNS = system: SF-295 CNS
KM12 colon = system: KM12 colon
SK-MEL-5 melanoma = system: SK-MEL-5 melanoma
BT-549 breast = system: BT-549 breast
SF-268 CNS = system: SF-268 CNS
NCI-H23 lung = system: NCI-H23 lung
SF-539 CNS = system: SF-539 CNS
CAKI-1 renal = system: CAKI-1 renal
MCF7 breast = system: MCF7 breast
HCT-116 colon = system: HCT-116 colon
DU-145 prostate = system: DU-145 prostate
HS 578T breast = system: HS 578T breast
MOLT-4 leukemia = system: MOLT-4 leukemia
SNB-75 CNS = system: SNB-75 CNS
A549 NSCLC = system: A549 NSCLC
HOP-92 NSCLC = system: HOP-92 NSCLC
HCC-2998 colon = system: HCC-2998 colon
HL-60(TB) leukemia = system: HL-60(TB) leukemia
RPMI-8226 leukemia = system: RPMI-8226 leukemia
A498 renal = system: A498 renal
NCI-H226 lung = system: NCI-H226 lung
MALME-3M melanoma = system: MALME-3M melanoma
UACC-257 melanoma = system: UACC-257 melanoma
HOP-62 NSCLC = system: HOP-62 NSCLC
UO-31 renal = system: UO-31 renal
SR leukemia = system: SR leukemia
MDA-MB-231 breast = system: MDA-MB-231 breast
U251 CNS = system: U251 CNS
M14 melanoma = system: M14 melanoma
SNB-19 CNS = system: SNB-19 CNS
UACC-62 melanoma = system: UACC-62 melanoma
SK-MEL-2 melanoma = system: SK-MEL-2 melanoma
HT29 colon = system: HT29 colon
SK-MEL-28 melanoma = system: SK-MEL-28 melanoma
OVCAR-5 ovarian = system: OVCAR-5 ovarian
ACHN renal = system: ACHN renal
OVCAR-4 ovarian = system: OVCAR-4 ovarian
NCI-H522 lung = system: NCI-H522 lung
NCI/ADR-RES ovarian = system: NCI/ADR-RES ovarian

Q: Which results are given for `O=c1c2cc(F)ccc2sc2c(N3CCNCC3)nc3ccccc3c12`?
A: GI50 (EKVX NSCLC): 1550 nM; TGI (EKVX NSCLC): 2980 nM; GI50 (MDA-MB-435): 1650 nM; TGI (MDA-MB-435): 3050 nM; GI50 (OVCAR-3 ovarian): 1660 nM; TGI (OVCAR-3 ovarian): 3090 nM; GI50 (RXF 393 renal): 1290 nM; TGI (RXF 393 renal): 2650 nM; GI50 (COLO 205 colon): 1750 nM; TGI (COLO 205 colon): 4030 nM; GI50 (SW-620 colon): 1510 nM; TGI (SW-620 colon): 3010 nM; GI50 (NCI-H460 lung): 1490 nM; TGI (NCI-H460 lung): 2990 nM; GI50 (OVCAR-8 ovarian): 1820 nM; TGI (OVCAR-8 ovarian): 4080 nM; GI50 (IGROV1 ovarian): 1500 nM; TGI (IGROV1 ovarian): 3020 nM; GI50 (SN12C renal): 1590 nM; TGI (SN12C renal): 3040 nM; GI50 (LOX IMVI melanoma): 1590 nM; TGI (LOX IMVI melanoma): 3020 nM; GI50 (PC-3 prostate): 1610 nM; TGI (PC-3 prostate): 3100 nM; GI50 (TK-10 renal): 1690 nM; TGI (TK-10 renal): 3240 nM; GI50 (HCT-15 colon): 1410 nM; TGI (HCT-15 colon): 2850 nM; GI50 (786-0 renal): 1450 nM; TGI (786-0 renal): 2930 nM; GI50 (SF-295 CNS): 1750 nM; TGI (SF-295 CNS): 3170 nM; GI50 (KM12 colon): 1720 nM; TGI (KM12 colon): 3340 nM; GI50 (SK-MEL-5 melanoma): 1760 nM; TGI (SK-MEL-5 melanoma): 3180 nM; GI50 (BT-549 breast): 7760 nM; TGI (BT-549 breast): 20900 nM; GI50 (SF-268 CNS): 1550 nM; TGI (SF-268 CNS): 3180 nM; GI50 (NCI-H23 lung): 1780 nM; TGI (NCI-H23 lung): 3270 nM; GI50 (SF-539 CNS): 1630 nM; TGI (SF-539 CNS): 3050 nM; GI50 (CAKI-1 renal): 1590 nM; TGI (CAKI-1 renal): 2930 nM; GI50 (MCF7 breast): 1700 nM; TGI (MCF7 breast): 3270 nM; GI50 (HCT-116 colon): 1590 nM; TGI (HCT-116 colon): 3010 nM; GI50 (DU-145 prostate): 1690 nM; TGI (DU-145 prostate): 3120 nM; GI50 (HS 578T breast): 1530 nM; TGI (HS 578T breast): 3310 nM; GI50 (MOLT-4 leukemia): 1700 nM; TGI (MOLT-4 leukemia): 3560 nM; GI50 (SNB-75 CNS): 1430 nM; TGI (SNB-75 CNS): 2800 nM; GI50 (A549 NSCLC): 1650 nM; TGI (A549 NSCLC): 3540 nM; GI50 (HOP-92 NSCLC): 867 nM; TGI (HOP-92 NSCLC): 2220 nM; GI50 (HCC-2998 colon): 1650 nM; TGI (HCC-2998 colon): 3050 nM; GI50 (HL-60(TB) leukemia): 1900 nM; TGI (HL-60(TB) leukemia): 3720 nM; GI50 (RPMI-8226 leukemia): 1770 nM; TGI (RPMI-8226 leukemia): 3770 nM; GI50 (A498 renal): 1440 nM; TGI (A498 renal): 2910 nM; GI50 (NCI-H226 lung): 1820 nM; TGI (NCI-H226 lung): 3480 nM; GI50 (MALME-3M melanoma): 1640 nM; TGI (MALME-3M melanoma): 3220 nM; GI50 (UACC-257 melanoma): 1990 nM; TGI (UACC-257 melanoma): 3870 nM; GI50 (HOP-62 NSCLC): 1610 nM; TGI (HOP-62 NSCLC): 3440 nM; GI50 (UO-31 renal): 1370 nM; TGI (UO-31 renal): 2710 nM; GI50 (SR leukemia): 1540 nM; TGI (SR leukemia): 4140 nM; GI50 (MDA-MB-231 breast): 1390 nM; TGI (MDA-MB-231 breast): 2780 nM; GI50 (U251 CNS): 1570 nM; TGI (U251 CNS): 3420 nM; GI50 (M14 melanoma): 1780 nM; TGI (M14 melanoma): 3270 nM; GI50 (SNB-19 CNS): 1610 nM; TGI (SNB-19 CNS): 3040 nM; GI50 (UACC-62 melanoma): 1690 nM; TGI (UACC-62 melanoma): 3090 nM; GI50 (SK-MEL-2 melanoma): 2010 nM; TGI (SK-MEL-2 melanoma): 4000 nM; GI50 (HT29 colon): 1640 nM; TGI (HT29 colon): 3350 nM; GI50 (SK-MEL-28 melanoma): 1750 nM; TGI (SK-MEL-28 melanoma): 3170 nM; GI50 (OVCAR-5 ovarian): 1670 nM; TGI (OVCAR-5 ovarian): 3080 nM; GI50 (ACHN renal): 1560 nM; TGI (ACHN renal): 2890 nM; GI50 (OVCAR-4 ovarian): 1740 nM; TGI (OVCAR-4 ovarian): 3460 nM; GI50 (NCI-H522 lung): 1860 nM; TGI (NCI-H522 lung): 3720 nM; GI50 (NCI/ADR-RES ovarian): 1690 nM; TGI (NCI/ADR-RES ovarian): 3220 nM
